Reference: US7432226B2, “Herbicidally active composition” (Bayer CropScience GmbH, priority 2003, dated 2008)

How the values were obtained:
Settings in all cases: in vivo
Corn, cultivar “Lorenzo” = experiment: Herbicidal post-emergence action, damage to crop plants: corn
Protocol: (§1) Herbicidal Post-emergence Action
(§2) Seeds of monocotyledonous and dicotyledonous weeds and of crop plants are placed in sandy loam soil in plastic pots, covered with soil and cultivated in a greenhouse under good growth conditions.
(§3) Three weeks after sowing, the test plants are treated at the 3-4-leaf stage.
(§4) Stated is the respective degree of damage to the crop plants and the reduction of the damage by the herbicide/safener combinations according to the invention in percent, compared with the herbicide applied alone.

[1] = test system: Barley, cultivar “Baronesse”; experiment: Herbicidal post-emergence action, damage to crop plants: barley Baronesse
Protocol: as §1, §2, §3, §4

[2] = test system: Wheat, cultivar “Kanzler”; experiment: Herbicidal post-emergence action, damage to crop plants: wheat Kanzler
Protocol: as §1, §2, §3, §4

Barley, cultivar “Duett” = experiment: Herbicidal post-emergence action, damage to crop plants: barley Duett
Protocol: as §1, §2, §3, §4

Compound | Degree of damage (Corn, cultivar “Lorenzo”) [%] | Degree of damage [1] [%] | Degree of damage [2] [%] | Degree of damage (Barley, cultivar “Duett”) [%]
COC(=O)c1ccccc1S(=O)(=O)NC(=O)Nc1nc(C)nc(OC)n1 [herbicide A1.1, metsulfuron-methyl] | 50 | 10 | 10 | 
COC(=O)c1sccc1S(=O)(=O)NC(=O)Nc1nc(C)nc(OC)n1 [herbicide A2.1, thifensulfuron-methyl] | 20 |  | 10 | 20
COC(=O)c1ccccc1S(=O)(=O)NC(=O)N(C)c1nc(C)nc(OC)n1 [herbicide A3.1, tribenuron-methyl] | 10 |  | 20 | 
COc1nc(C)nc(NC(=O)NS(=O)(=O)c2ccccc2Cl)n1 [herbicide A4.1, chlorsulfuron] | 70 | 10 |  | 
